According to ChEMBL document CHEMBL3259791, “Discovery of (E)-3-((styrylsulfonyl)methyl)pyridine and (E)-2-((styrylsulfonyl)methyl)pyridine derivatives as anticancer agents: synthesis, structure-activity relationships, and biological activities” (J Med Chem, 2014):
Activity calls are given as the source filed them. The rule behind the calls is not given here.

Columns and labels:
[1] = tested on: A2780; test: Antiproliferative activity against human A2780 cells assessed as cell growth inhibition after 72 hrs by MTT assay; type: functional; details: A2780, 72 h
[2] = tested on: MCF7; test: Antiproliferative activity against human MCF7 cells assessed as cell growth inhibition after 72 hrs by MTT assay; type: functional; details: MCF7, 72 h
[3] = tested on: HCT-116; test: Antiproliferative activity against human HCT116 cells assessed as cell growth inhibition after 72 hrs by MTT assay; type: functional; details: HCT-116, 72 h
[4] = tested on: A2780; test: Induction of apoptosis in human A2780 cells assessed as caspase-3/7 activation at […] after 24 hrs by using Apo-ONE homogeneous caspase-3/7 kit; type: functional, cell-based
[5] = tested on: WI-38; test: Induction of apoptosis in human WI38 cells assessed as caspase-3/7 activation up to 1 uM after 24 hrs by using Apo-ONE homogeneous caspase-3/7 kit; type: functional, cell-based
[6] = tested on: A2780; test: Reduction in CDC25C level in human A2780 cells at […] after 24 hrs by Western blot analysis; type: functional, cell-based
[7] = tested on: A2780; test: Reduction in Mcl1 level in human A2780 cells at […] after 24 hrs by Western blot analysis; type: functional, cell-based
[8] = Cmax in mouse at 10 mg/kg, po after 24 hrs; type: ADME, organism-based; design: dose 10 mg/kg, route oral; details: in vivo
[9] = AUC (0 to t) in mouse at 10 mg/kg, po after 24 hrs; type: ADME, organism-based; design: time < 24 hr, dose 10 mg/kg, route oral; details: plasma
[10] = Elimination half life in mouse at 10 mg/kg, po after 24 hrs; type: ADME, organism-based; design: dose 10 mg/kg, route oral; details: in vivo, read-out: beta t1/2 (converted)
[11] = Oral bioavailability (0 to t) in mouse at 10 mg/kg after 24 hrs; type: ADME, organism-based; details: in vivo
[12] = Octanol-buffer partition coefficient, log D of the compound at pH 7.4 by shake-flask method; type: physicochemical
[13] = Aqueous solubility of the compound by turbidimetric solubility assay; type: physicochemical; details: buffer
[14] = Apparent permeability across apical to basolateral side in human Caco2 cells; type: ADME, cell-based; details: Caco-2
[15] = Apparent permeability across basolateral to apical side in human Caco2 cells; type: ADME, cell-based; details: Caco-2
[16] = Half life in rat liver microsomes; type: ADME
[17] = tested on: HCT-116; test: Antitumor activity against human HCT116 cells xenografted in mouse assessed as delay in tumor growth at 33.3 mg/kg, ip daily 5 days/week for 2 weeks; type: functional, organism-based; design: dose 33.3 mg/kg
[18] = tested on: HCT-116; test: Antitumor activity against human HCT116 cells xenografted in mouse assessed as delay in tumor growth at 100 mg/kg, ip daily 5 days/week for 2 weeks; type: functional, organism-based; design: dose 100 mg/kg
[19] = tested on: MCF7; test: Antiproliferative activity against ER positive human MCF7 cells assessed as cell growth inhibition after 72 hrs by MTT assay; type: functional; details: MCF7, 72 h
[20] = tested on: MDA-MB-231; test: Antiproliferative activity against ER negative human MDA-MB-231 cells assessed as cell growth inhibition after 72 hrs by MTT assay; type: functional; details: MDA-MB-231, 72 h
[21] = tested on: HeLa; test: Antiproliferative activity against human HeLa cells assessed as cell growth inhibition after 72 hrs by MTT assay; type: functional
[22] = Antiproliferative activity against human PANC1 cells assessed as cell growth inhibition after 72 hrs by MTT assay; type: functional; details: PANC-1, 72 h
[23] = tested on: WI-38; test: Antiproliferative activity against human WI38 cells assessed as cell growth inhibition after 72 hrs by MTT assay; type: functional; details: WI-38, 72 h
[24] = Dissociation constant, pKa of the compound by pH-metric method; type: physicochemical
[25] = biological target: Voltage-gated inwardly rectifying potassium channel KCNH2 (Homo sapiens, UniProt Q12809); test: Inhibition of human ERG expressed in CHO cells
[26] = Cmax in mouse at 40 mg/kg, po after 24 hrs; type: ADME, organism-based; design: dose 40 mg/kg, route oral; details: in vivo
[27] = AUC (0 to t) in mouse at 40 mg/kg, po after 24 hrs; type: ADME, organism-based; design: time < 24 hr, dose 40 mg/kg, route oral; details: plasma
[28] = Elimination half life in mouse at 40 mg/kg, po after 24 hrs; type: ADME, organism-based; design: dose 40 mg/kg, route oral; details: in vivo, read-out: beta t1/2 (converted)
[29] = Oral bioavailability (0 to t) in mouse at 40 mg/kg after 24 hrs; type: ADME, organism-based; details: in vivo
[30] = Oral bioavailability (0 to infinity) in mouse at 40 mg/kg after 24 hrs; type: ADME, organism-based; details: in vivo
[31] = tested on: MCF7; test: Selectivity ratio of IC50 for human WI38 cells to IC50 for ER positive human MCF7 cells; type: functional
[32] = tested on: WI-38; test: Selectivity ratio of IC50 for human WI38 cells to IC50 for ER negative human MDA-MB-231 cells; type: functional
[33] = tested on: HeLa; test: Selectivity ratio of IC50 for human WI38 cells to IC50 for human HeLa cells; type: functional
[34] = tested on: PANC-1; test: Selectivity ratio of IC50 for human WI38 cells to IC50 for human PANC1 cells; type: functional
[35] = tested on: DU-145; test: Selectivity ratio of IC50 for human WI38 cells to IC50 for AR negative human DU145 cells; type: functional
[36] = tested on: LNCaP; test: Selectivity ratio of IC50 for human WI38 cells to IC50 for AR positive human LNCAP cells; type: functional
[37] = tested on: HCT-116; test: Selectivity ratio of IC50 for human WI38 cells to IC50 for human HCT116 cells; type: functional
[38] = tested on: A2780; test: Selectivity ratio of IC50 for human WI38 cells to IC50 for human A2780 cells; type: functional
[39] = tested on: MCF7; test: Ratio of ON01910 IC50 to compound IC50 for ER positive human MCF7 cells; type: functional
[40] = tested on: MDA-MB-231; test: Ratio of ON01910 IC50 to compound IC50 for ER negative human MDA-MB-231 cells; type: functional
[41] = tested on: HeLa; test: Ratio of ON01910 IC50 to compound IC50 for human HeLa cells; type: functional
[42] = tested on: PANC-1; test: Ratio of ON01910 IC50 to compound IC50 for human PANC1 cells; type: functional
[43] = tested on: DU-145; test: Ratio of ON01910 IC50 to compound IC50 for AR negative human DU145 cells; type: functional
[44] = tested on: LNCaP; test: Ratio of ON01910 IC50 to compound IC50 for AR positive human LNCAP cells; type: functional
[45] = tested on: HCT-116; test: Ratio of ON01910 IC50 to compound IC50 for human HCT116 cells; type: functional
[46] = tested on: A2780; test: Ratio of ON01910 IC50 to compound IC50 for human A2780 cells; type: functional
[47] = tested on: LNCaP; test: Antiproliferative activity against AR positive human LNCAP cells assessed as cell growth inhibition after 72 hrs by MTT assay; type: functional
[48] = tested on: DU-145; test: Antiproliferative activity against AR negative human DU145 cells assessed as cell growth inhibition after 72 hrs by MTT assay; type: functional; details: DU-145, 72 h

Sequence of Voltage-gated inwardly rectifying potassium channel KCNH2 (Q12809 whole entry): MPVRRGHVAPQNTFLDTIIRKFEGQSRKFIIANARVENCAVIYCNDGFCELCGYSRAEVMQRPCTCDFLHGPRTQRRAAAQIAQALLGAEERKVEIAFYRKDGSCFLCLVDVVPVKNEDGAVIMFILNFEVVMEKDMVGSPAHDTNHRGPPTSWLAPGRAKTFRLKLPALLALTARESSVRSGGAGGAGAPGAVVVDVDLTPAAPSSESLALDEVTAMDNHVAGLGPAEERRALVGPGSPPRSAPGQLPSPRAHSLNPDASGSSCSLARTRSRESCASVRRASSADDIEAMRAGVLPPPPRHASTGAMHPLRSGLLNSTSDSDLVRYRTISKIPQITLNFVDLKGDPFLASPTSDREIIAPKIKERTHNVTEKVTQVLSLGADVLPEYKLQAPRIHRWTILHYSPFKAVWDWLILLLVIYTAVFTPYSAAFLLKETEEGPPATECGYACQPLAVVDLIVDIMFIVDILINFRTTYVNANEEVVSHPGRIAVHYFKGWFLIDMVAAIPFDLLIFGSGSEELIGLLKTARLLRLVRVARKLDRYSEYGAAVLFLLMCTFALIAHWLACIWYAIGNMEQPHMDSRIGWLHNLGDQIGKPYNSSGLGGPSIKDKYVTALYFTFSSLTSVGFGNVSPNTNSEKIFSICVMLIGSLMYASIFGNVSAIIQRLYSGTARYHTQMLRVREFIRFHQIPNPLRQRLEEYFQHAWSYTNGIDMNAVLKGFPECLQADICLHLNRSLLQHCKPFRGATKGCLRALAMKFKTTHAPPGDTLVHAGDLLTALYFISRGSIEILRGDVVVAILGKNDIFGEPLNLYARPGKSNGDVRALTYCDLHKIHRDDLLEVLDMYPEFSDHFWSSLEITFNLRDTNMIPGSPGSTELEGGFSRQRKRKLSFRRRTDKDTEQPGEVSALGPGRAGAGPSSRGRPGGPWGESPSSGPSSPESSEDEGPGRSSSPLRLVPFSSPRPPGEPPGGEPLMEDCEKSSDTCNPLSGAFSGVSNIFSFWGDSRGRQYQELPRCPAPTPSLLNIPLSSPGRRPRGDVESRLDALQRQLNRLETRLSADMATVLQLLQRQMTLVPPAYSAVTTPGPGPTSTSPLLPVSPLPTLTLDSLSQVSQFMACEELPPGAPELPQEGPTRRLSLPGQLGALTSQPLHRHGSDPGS

Structure (SMILES): COc1cc(OC)c(/C=C/S(=O)(=O)Cc2cnc(OC)c(NC(C)=O)c2)c(OC)c1
- GI50 [1]: 7100 nM
- GI50 [2]: 7500 nM
- GI50 [3]: 8220 nM

Structure (SMILES): COc1cc(OC)c(/C=C/S(=O)(=O)Cc2cnc(OC)c([N+](=O)[O-])c2)c(OC)c1
- GI50 [1]: 7210 nM
- GI50 [2]: 5220 nM
- GI50 [3]: 7430 nM

Structure (SMILES): COc1cc(OC)c(/C=C/S(=O)(=O)Cc2ccc(OC)c([N+](=O)[O-])n2)c(OC)c1
- GI50 [1]: > 10000 nM
- GI50 [2]: 9970 nM
- GI50 [3]: > 10000 nM

Structure (SMILES): CCN(C(C)=O)c1cc(CS(=O)(=O)/C=C/c2c(OC)cc(OC)cc2OC)cnc1OC
- GI50 [2]: > 10000 nM
- GI50 [3]: > 10000 nM

Structure (SMILES): COc1cc(OC)c(/C=C/S(=O)(=O)Cc2cnc(OC)c(NCC(N)=O)c2)c(OC)c1
- GI50 [2]: > 10000 nM
- GI50 [3]: 6590 nM

Structure (SMILES): COc1cc(OC)c(/C=C/S(=O)(=O)Cc2ccc(OC)c(NCC(=O)O)n2)c(OC)c1
- GI50 [1]: 253 nM
- GI50 [2]: 545 nM
- GI50 [3]: 329 nM

Structure (SMILES): COc1cc(OC)c(/C=C/S(=O)(=O)Cc2ccc(OC)c(NCC(=O)O)c2)c(OC)c1
- Activity [4]: Active
- Activity [5]: inactive
- inhibition [6]: Active
- inhibition [7]: Active

Structure (SMILES): COc1cc(OC)c(/C=C/S(=O)(=O)Cc2ccc(OC)c(NC(C)=O)n2)c(OC)c1
- GI50 [1]: 500 nM
- GI50 [2]: 660 nM
- GI50 [3]: 320 nM

Structure (SMILES): COc1cc(OC)c(/C=C/S(=O)(=O)Cc2ccc(OC)c(NCC(=O)[O-])c2)c(OC)c1.[Na+] [RIGOSERTIB SODIUM]
- Cmax [8]: 400 nM
- AUC(0-t) at 24 h [9]: 1 µM·h
- half-life [10]: 2.6 h
- bioavailability [11]: 9%

Structure (SMILES): CCOC(=O)CNc1cc(CS(=O)(=O)/C=C/c2c(OC)cc(OC)cc2OC)cnc1OC
- GI50 [1]: 409 nM
- GI50 [2]: 940 nM
- GI50 [3]: 517 nM

Structure (SMILES): COc1cc(OC)c(/C=C/S(=O)(=O)Cc2cnc(OC)c(NS(C)(=O)=O)c2)c(OC)c1
- logD [12]: 1.52
- solubility kinetic [13]: > 100 µM
- Papp A→B [14]: 8.9 ×10⁻⁶ cm/s
- Papp B→A [15]: 47.1 ×10⁻⁶ cm/s
- half-life [16]: 1.17 h
- Cmax [8]: 6300 nM
- AUC(0-t) at 24 h [9]: 7.2 µM·h
- half-life [10]: 3 h
- Activity [17]: Active
- Activity [18]: Active
- GI50 [1]: 317 nM
- GI50 [2]: 780 nM
- GI50 [3]: 570 nM
- GI50 [19]: 780 nM
- GI50 [20]: 671 nM
- GI50 [21]: 682 nM
- GI50 [22]: 875 nM
- GI50 [23]: > 10000 nM
- pKa [24]: 7.66

Structure (SMILES): CCOC(=O)CNc1nc(CS(=O)(=O)/C=C/c2c(OC)cc(OC)cc2OC)ccc1OC
- GI50 [1]: 6910 nM
- GI50 [2]: 5710 nM
- GI50 [3]: 5450 nM

Structure (SMILES): CCCS(=O)(=O)Nc1cc(CS(=O)(=O)/C=C/c2c(OC)cc(OC)cc2OC)cnc1OC
- GI50 [1]: > 10000 nM
- GI50 [2]: > 10000 nM
- GI50 [3]: > 10000 nM

Structure (SMILES): CCS(=O)(=O)Nc1cc(CS(=O)(=O)/C=C/c2c(OC)cc(OC)cc2OC)cnc1OC
- GI50 [1]: > 10000 nM
- GI50 [2]: > 10000 nM
- GI50 [3]: > 10000 nM

Structure (SMILES): COc1cc(OC)c(/C=C/S(=O)(=O)Cc2cnc(OC)c(NCC(=O)O)c2)c(OC)c1
- GI50 [1]: 376 nM
- GI50 [3]: 410 nM

Structure (SMILES): COc1cc(OC)c(C(C(c2cnc(OC)c([N+](=O)[O-])c2)S(C)(=O)=O)N2CCCCC2)c(OC)c1 (stereo not given)
- GI50 [2]: 6410 nM
- GI50 [3]: 4400 nM

Structure (SMILES): COc1cc(OC)c(/C=C/S(=O)(=O)Cc2cnc(OC)c(N)c2)c(OC)c1
- logD [12]: 2.34
- solubility kinetic [13]: > 100 µM
- Papp A→B [14]: 42.3 ×10⁻⁶ cm/s
- Papp B→A [15]: 21.5 ×10⁻⁶ cm/s
- half-life [16]: 0.333 h
- IC50 [25]: > 25000 nM
- Cmax [26]: 3000 nM
- AUC(0-t) at 24 h [27]: 24.6 µM·h
- half-life [28]: 61.8 h
- bioavailability [29]: 28%
- bioavailability [30]: 100%
- Ratio IC50 [31]: >1400
- Ratio IC50 [32]: >1400
- Ratio IC50 [33]: >1400
- Ratio IC50 [34]: >1400
- Ratio IC50 [35]: >1400
- Ratio IC50 [36]: >1400
- Ratio IC50 [37]: >1400
- Ratio IC50 [38]: >1400
- Ratio IC50 [39]: 10
- Ratio IC50 [40]: 10
- Ratio IC50 [41]: 10
- Ratio IC50 [42]: 10
- Ratio IC50 [43]: 10
- Ratio IC50 [44]: 10
- Ratio IC50 [45]: 10
- Ratio IC50 [46]: 10
- GI50 [1]: 5 nM
- GI50 [2]: 6 nM
- GI50 [3]: 5 nM
- GI50 [19]: 6 nM
- GI50 [20]: 6 nM
- GI50 [21]: 4 nM
- GI50 [22]: < 1 nM
- GI50 [47]: 3 nM
- GI50 [48]: 5 nM
- GI50 [23]: > 10000 nM
- pKa [24]: 2.39
